Values quoted from earlier work in patent US12473269B2, “Urolithin derivatives and methods of use thereof” (Vandria SA, priority 2021, dated 2025).

System: C2C12 myoblasts
Details: treatment of C2C12 myoblasts; mitochondrial fragmentation and decrease in mitochondrial content; Ryu et al., Nat Med 2016

O=c1oc2cc(O)ccc2c2ccc(O)cc12 [UA, Urolithin A]
induction of mitophagy: induction of mitophagy
